Data set [1] concerns 293T cells. As to the kind of experiment: Western blot analysis of apoptosis and autophagy. Format: cell-based, human. As to conditions: 8 hours, bufalin 1 nM to 10 μM, staurosporine 4 μM; for induction of LC3B-II (marker of autophagy): BFA 100 nM. The method, then:
(§1) The cells were also exposed to 0.1% Triton X-100 for 1 hr before the viability assay as a control (FIG. 16E). Data represent mean values±s.d. (n=3). […] Cells were harvested and washed, then stained with Allophycocyanin (APC) conjugated Annexin V and 7-AAD for 15 minutes and subjected to flow cytometry analysis. The number in each graph is the percentile of Annexin V or 7-AAD positive populations. […] Total protein lysates were prepared and separated on SDS-PAGE for Western blot analysis of PARP1, cleaved PARP1, cleaved Caspase3, LC3B, ATP1a1, and beta-actin expression.
Apoptosis and autophagy were also analyzed by Western blots. […] Total protein lysates were prepared and separated on SDS-PAGE for Western blot analysis of PARP1, cleaved PARP1, cleaved Caspase3, LC3B, ATP1a1, and beta-actin expression.
A general note: Immunoblotting shows a protein as a band on a membrane.

Data set [2] relates to 293T cells. As to the kind of experiment: Flow cytometry analysis of apoptosis (Annexin V / 7-AAD). It counts as cell-based, human. As to conditions: bufalin 1 μM 8 hours; staurosporine 4 μM 4 hours. Here is the method: as §1
Treated cells and untreated control cells were harvested and washed with PBS, and stained with APC conjugated Annexin V and 7-AAD (both from BD Biosciences) in Annexin V binding buffer (10 mM HEPES, pH 7.4, 140 mM NaCl, 2.5 mM CaCl2) for 15 minutes at room temperature, and then subjected to flow cytometry analysis on a FACSCalibur (BD Biosciences).
Cells were harvested and washed, then stained with Allophycocyanin (APC) conjugated Annexin V and 7-AAD for 15 minutes and subjected to flow cytometry analysis. […] 11 for sturosporine.
On the technique in general: In flow cytometry, cells or beads pass a laser one at a time.

The test system of data set [3] is IFNβ promoter. Briefly: cells. Format: cell-based, human. As to conditions: for effect of ion-channel ligands on IFNβ reporter: increasing concentrations; for IC50: Homo sapiens, HEK-293T, read-out: IC50 for inhibition of virus induced IFNβ expression.
Protocol: 293T cells were transfected with the IFNβ promoter driving a firefly luciferase reporter together a reference renilla luciferase reporter plasmid. […] Firefly luciferase activities were measured after another 24 hrs and normalized to that of renilla activities.
293T cells were transfected with an IFNβ promoter driving luciferase reporter, 24 hrs later, increasing amounts (10 nM to 10 uM) of Ouabain (FIG. 8A) or digoxin (FIG. 8B) were added to cells before the Sendai virus infection. Luciferase activities were measured one day later.
Approximately 40,000 293T cells were seeded in a 96 well plate, and co-transfected with IFNβ-110 firefly luciferase reporter and renilla luciferase plasmids (Fitzgerald, K. A. et al. IKKepsilon and TBK1 are essential components of the IRF3 signaling pathway. Nat Immunol 4, 491-6 (2003)). After 24 hrs, cells were treated with various chemicals at the indicated concentrations, and sendai virus infection was initiated one hour later. After another 24 hrs, cells were lysed and subjected to Dual-Glo luciferase assay analysis (Promega) with an Analyst AD plate reader.
Human 293T cells were transfected with the IFNβ promoter driving the expression of luciferase construct. The cells were treated with a library of chemical compounds, and sendai virus (SeV) infection initiated one hour later. Luciferase activity was measured after another 24 hrs of culture. Signals were normalized to the samples not treated with chemicals.
In data set [4] the test system is TNF signaling. The settings on record: Yang et al.; blocks TRADD recruitment, inhibits IKBα degradation; cited from earlier work.
Data set [5] deals with endogenous IFNβ gene. Briefly: RT-PCR of virus induced endogenous IFNβ gene in 293T cells treated with ion-channel modulators. It counts as cell-based, human. As to conditions: 10 uM, 6 hrs. Here is the method:
293T cells were treated with 10 uM of nimodipine, diazoxide or phenamil 30 min before Sendai virus infection, 6 hrs later total RNA were extracted and the expression of various genes were analyzed by RT-PCR.
Since the major function of the pump is to maintain the cellular ion homeostasis, the inventors reasoned that it might be possible to inhibit or stimulate IFNβ induction by varying the intracellular ion concentration. The inventors thus performed luciferase reporter assays with an ion-channel ligand library, which contains various modulators for sodium, potassium, calcium and chloride channels. The experiments were conducted similarly to the initial screening assays: 293T cells were transfected with reporter plasmid, then chemical ligands were added before starting virus infection, and luciferase activity measured after another 24 hrs.

The values below come from patent US20140088056A1, “CARDIAC GLYCOSIDES ARE POTENT INHIBITORS OF INTERFERON-BETA GENE EXPRESSION” (priority 2010, published 2014).

Read-outs that look alike come from different tables or passages of the source. Marks after values point to notes of the source that are not given here.

By IC50 is commonly meant the concentration that inhibits the measured activity by half.

Take `CN[C@@H]1C[C@H]2O[C@@](C)([C@@H]1OC)n1c3ccccc3c3c4c(c5c6ccccc6n2c5c31)C(=O)NC4` [staurosporine]: in data set [1], the “cleavage products of PARP1 and Caspase3 (indication of apoptosis)” value is listed as “induced”; the “induction of LC3B-II (marker of autophagy)” value is “induced”. For the same molecule, the “Percentile of Annexin V or 7-AAD positive populations” value in data set [2] is 17.11. Regarding `Cn1c2ccccc2c2c3c(c4c5ccccc5n(CCC#N)c4c21)CNC3=O` [Go 6976], in data set [3] (tested at 3 μM, chemical library screen), the “Inhibition % of virus induced IFNβ expression” value was 55.9* %. In the case of `C[C@H]1O[C@@H](O[C@H]2[C@@H](O)C[C@H](O[C@H]3[C@@H](O)C[C@H](O[C@H]4CC[C@@]5(C)[C@H](CC[C@@H]6[C@@H]5CC[C@]5(C)[C@@H](C7=CC(=O)OC7)CC[C@]65O)C4)O[C@@H]3C)O[C@@H]2C)C[C@H](O)[C@@H]1O` [digitoxin], the TNF signaling entry in data set [4] is reported as “inhibit”.

On to `CC1=NS(=O)(=O)c2cc(Cl)ccc2N1` [diazoxide, Diazoxide], for which the “virus induced expression of the endogenous IFNβ gene” value in data set [5] is on record as “similarly inhibited”. The “effect of ion-channel ligands on IFNβ reporter” value in data set [3] is listed as “more inhibition”.

For `C[C@@H]1O[C@@H](O[C@H]2C[C@@H](O)[C@]3(CO)[C@H]4[C@H](O)C[C@]5(C)[C@@H](C6=CC(=O)OC6)CC[C@]5(O)[C@@H]4CC[C@]3(O)C2)[C@H](O)[C@H](O)[C@H]1O` [ouabain], the IC50 in data set [3] (293T cells, Sendai virus) is 64.8 nM.

Regarding `O=C(Nc1ccc([N+](=O)[O-])cc1O)Nc1ccccc1Br` [SB 225002], the “Inhibition % @ 10 μM of virus induced IFNβ expression” value (“Inhibition % @ 10 μM” below) in data set [3] (chemical library screen) was found to be 50.8%. `NC(=Nc1ccccc1)NC(=O)c1nc(Cl)c(N)nc1N` [phenamil]: the “virus induced expression of the endogenous IFNβ gene” value in data set [5] is “less potent”. Moreover, the “effect of ion-channel ligands on IFNβ reporter” value in data set [3] is listed as “consistently enhanced”. Turning to `CO/C1=C\C(C)=C\[C@@H](C)[C@@H](O)[C@@H](C)C/C(C)=C/C=C/[C@H](OC)[C@@H]([C@@H](C)[C@@H](O)[C@H](C)[C@@]2(O)C[C@@H](O)[C@H](C)[C@@H](C(C)C)O2)OC1=O` [BFA, bafilomycin A1], the “induction of LC3B-II (marker of autophagy)” value in data set [1] was “induced”. Take `O=C(Nc1cccc(Nc2cc(Nc3cccc(C(F)(F)F)c3)ncn2)c1)C1CC1` [EGF receptor inhibitor]: the “Inhibition % @ 10 μM” value in data set [3] (chemical library screen) turned out to be 38.5%.

As to `C[C@H]1O[C@@H](O[C@H]2[C@@H](O)C[C@H](O[C@H]3[C@@H](O)C[C@H](O[C@H]4CC[C@@]5(C)[C@H](CC[C@@H]6[C@@H]5C[C@@H](O)[C@]5(C)[C@@H](C7=CC(=O)OC7)CC[C@]65O)C4)O[C@@H]3C)O[C@@H]2C)C[C@H](O)[C@@H]1O` [digoxin], in data set [3], the IC50 came out at 56.6 nM.

For the molecule `CC#CC(=O)Nc1cc2c(Nc3ccc(F)c(Cl)c3)ncnc2cn1` [EGFR/ErbB-2/ErbB-4 Inhibitor], the “Inhibition % @ 10 μM” value in data set [3] (chemical library screen) came out at 20.6%.
